Measurements: patent US20260008775A1, “AZOLE MODULATORS OF CHOLESTEROL BIOSYNTHESIS AND THEIR USE FOR PROMOTING REMYELINATION” (GENENTECH, INC., priority 2022, published 2026)
Read-outs that look alike come from different tables or passages of the source. Values belong to the compound of their own block, whether it stands above or below them.

Tests used:
[1] = test system: zymostenol accumulation (EBP) in EpiSC-derived OPCs; test: GC/MS-based sterol profiling, zymostenol accumulation in EpiSC-derived OPCs; assay type: cell-based, mouse; settings: for EC50: EpiSC-derived OPCs, 24 hr, 8 doses from 0.15 nM to 333 nM, read-out: Mouse Zymostenol GCMS EC50
Procedure, shortened: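 Zymostenol level is expressed relative to that after 24 h with 100 nM positive-control reference, measured by full-scan GC/MS (m/z 458) with cholesterol-d7 internal standard after BSTFA derivatisation. Cells were EpiSC-derived OPCs, 100,000/well in N2B27 without growth factors, treated 24 h, from two or more independent platings.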

EpiSC-derived OPCs = test: In vitro phenotypic screening of OPCs, MBP high-content imaging (percentage of oligodendrocytes); assay type: cell-based, mouse; settings: for EC50: 3 days, MBP stain, dose-response 0.5 nM to 1000 nM, read-out: OPC EC50
Method: To assess effects of treatments on OPCs, all treatments were assayed in two or more independent platings of epiblast stem cell-derived OPCs (EpiSC). EpiSC-derived OPCs were obtained using in vitro differentiation protocols and culture conditions described previously (Najm et al, 2011, Nature Methods). OPCs were expanded and frozen down in aliquots. OPCs were thawed into growth conditions for at least one passage before use in further assays.
EpiSC-derived OPCs were grown and expanded in poly-L-ornithine (PO) and laminin-coated flasks in N2B27 media (DMEM/F12 (Gibco), N2-MAX (R&D Systems), B-27 (ThermoFisher), and GlutaMax (Gibco)) supplemented with FGF2 (10 μg/mL, R&D systems, 233-FB-025) and PDGF-AA (10 μg/mL, R&D systems, 233-AA-050) before harvesting for experiments. The cells were seeded onto poly-L-ornithine or poly-D-lysine coated CellCarrier Ultra plates (PerkinElmer) coated with laminin (Sigma, L2020) at a density of 150,000/cm^2 in N2B27 media without growth factors. For dose-response testing, a 1000× compound stock in dimethyl sulphoxide (DMSO) was added to assay plates, resulting in 8-point dose curves with final concentrations between 1000 nM and 0.5 nM. Positive controls and DMSO vehicle controls were included in each assay plate. Cells were incubated under standard conditions (37° C., 5% CO2) for 3 days and fixed with 4% paraformaldehyde (PFA) in phosphate buffered saline (PBS) for 20 min. Fixed plates were washed with PBS, permeabilized with 0.1% Triton X-100, and blocked with 10% donkey serum (v/v) in PBS for 40 min. Then, cells were labelled with MBP antibodies (Abcam, ab7349; 1:200) for 2 h at room temperature, washed with PBS, and stained with Alexa Fluor conjugated secondary antibodies (1:500) for 45 min. Nuclei were visualized by DAPI staining (Sigma; […]), followed by further PBS washes.
Cells and cell culture plates were imaged on the Operetta High Content Imaging and Analysis system (PerkinElmer). Analysis (PerkinElmer Harmony and Columbus software) began by identifying intact nuclei stained by DAPI. The peri-nuclear region of each cell was then cross-referenced with the mature myelin protein (MBP) stain to identify oligodendrocyte nuclei, and from this the percentage of oligodendrocytes was calculated. EC50 values were calculated using The Levenberg-Marquardt algorithm to fit a Hill equation to dose-response data (0.5 nM to 1000 nM).

[2] = target: human emopamil binding protein and human 7-dehydrocholesterol reductase (hEBP-DHCR7) (Homo sapiens (Human), UniProt Q15125); test: hEBP-DHCR7 radioligand binding assay (filter binding, membranes of co-expressing HEK293 cells); settings: competition with [3H] radioligand, 8 doses 0.06 to 5000 nM, Ki calculated from IC50
Procedure, shortened: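 Compound, either single dose 1 μM or eight 5-fold dilutions from 0.06 to 5000 nM, competed with a [3H]-labelled ligand added at 25 nM for binding to co-expressing HEK293 membranes. IC50 came from nonlinear regression, with full block and DMSO as controls, then Cheng–Prusoff conversion to Ki.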

Sequence of human emopamil binding protein and human 7-dehydrocholesterol reductase (hEBP-DHCR7) (Q15125 whole entry): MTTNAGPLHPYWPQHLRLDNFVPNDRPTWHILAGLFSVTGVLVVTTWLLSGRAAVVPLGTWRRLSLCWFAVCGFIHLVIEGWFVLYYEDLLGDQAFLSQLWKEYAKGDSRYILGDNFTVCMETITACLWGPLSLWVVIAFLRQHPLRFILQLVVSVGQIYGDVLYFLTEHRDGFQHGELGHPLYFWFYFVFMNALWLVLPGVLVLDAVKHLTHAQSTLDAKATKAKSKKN

EC50 ([1]; Mus musculus, 24 h): 0.009 µM
EC50 (EpiSC-derived OPCs; Mus musculus, 72 h): 0.0439 µM
Ki [2]: 0.0236 µM
SMILES: CC(C)n1nc(-c2cncc(C(F)(F)F)c2)cc1[C@H]1[C@@H]2C[C@H](N3CCO[C@H](C)C3)C[C@@H]21 (single isomer, unassigned) [42*]

EC50 [1]: 0.0131 µM
EC50 (EpiSC-derived OPCs): 0.132 µM
Ki [2]: 0.0155 µM
SMILES: CC(C)n1nc(-c2cccc(C(F)(F)F)c2)nc1[C@H]1CC[C@H](N2CCOCC2)C1 (single isomer, unassigned) [23*]

EC50 ([1]; Mus musculus, 24 h): 0.0125 µM
EC50 (EpiSC-derived OPCs; Mus musculus, 72 h): 0.0784 µM
Ki [2]: 0.0109 µM
SMILES: COCCN1CCN([C@H]2CC[C@@H](c3nc(-c4ccc(C(F)(F)F)nc4)nn3C(C)C)C2)CC1 [Compound 83, 1-((1S,3R)-3-(1-Isopropyl-3-(6-(trifluoromethyl)pyridin-3-yl)-1H-1,2,4-triazol-5-yl)cyclopentyl)-4-(2-methoxyethyl) piperazine]

EC50 ([1]; Mus musculus, 24 h): 0.024 µM
EC50 (EpiSC-derived OPCs; Mus musculus, 72 h): 0.0893 µM
Ki [2]: 0.0893 µM
SMILES: CC(C)n1nc(-c2cnc(C(F)(F)F)nc2)nc1[C@H]1CC[C@@H](N2CCO[C@H](CF)C2)C1 [Compound 161, (S)-2-(Fluoromethyl)-4-((1R,3S)-3-(1-isopropyl-3-(2-(trifluoromethyl)pyrimidin-5-yl)-1H-1,2,4-triazol-5-yl)cyclopentyl)morpholine]

EC50 [1]: 0.00165 µM
EC50 (EpiSC-derived OPCs): 0.0113 µM
Ki [2]: 0.0089 µM
SMILES: CC(C)n1nc(-c2cccc(C(F)(F)F)c2)nc1[C@H]1CC[C@H](N2CCOCC2)C1 (single isomer, unassigned) [24*]

EC50 ([1]; Mus musculus, 24 h): 0.064 µM
EC50 (EpiSC-derived OPCs; Mus musculus, 72 h): 0.232 µM
SMILES: CC(C)n1nc(-c2cccc(C(F)(F)F)c2)nc1[C@H]1[C@@H]2C[C@@H](N3CCOCC3)C[C@@H]21 [20*, 4-((1R,3s,5S,6r)-6-(1-isopropyl-3-(3-(trifluoromethyl)phenyl)-1H-1,2,4-triazol-5-yl)bicyclo[3.1.0]hexan-3-yl)morpholine]

EC50 ([1]; Mus musculus, 24 h): 0.203 µM
EC50 (EpiSC-derived OPCs; Mus musculus, 72 h): 0.333 µM
SMILES: CC(C)n1nc(-c2ccc(C(F)(F)F)nc2)nc1[C@H]1[C@@H]2C[C@@H](N3CCCOCC3)C[C@@H]21 [Compound 16, 4-((1R,3s,5S,6r)-6-(1-isopropyl-3-(6-(trifluoromethyl)pyridin-3-yl)-1H-1,2,4-triazol-5-yl)bicyclo[3.1.0]hexan-3-yl)-1,4-oxazepane]

EC50 ([1]; Mus musculus, 24 h): 0.0402 µM
EC50 (EpiSC-derived OPCs; Mus musculus, 72 h): 0.0813 µM
SMILES: CC(C)n1nc(-c2cccc(C(F)(F)F)c2)nc1[C@H]1[C@@H]2C[C@@H](N3CCCOCC3)C[C@@H]21 [Compound 14, 4-((1R,3s,5S,6r)-6-(1-isopropyl-3-(3-(trifluoromethyl)phenyl)-1H-1,2,4-triazol-5-yl)bicyclo[3.1.0]hexan-3-yl)-1,4-oxazepane]

EC50 ([1]; Mus musculus, 24 h): 0.00148 µM
EC50 (EpiSC-derived OPCs; Mus musculus, 72 h): 0.00318 µM
SMILES: CC(C)n1nc(-c2cccc(C(F)(F)F)c2)nc1[C@H]1[C@@H]2C[C@H](N3CCCOCC3)C[C@@H]21 [Compound 13, 4-((1R,3r,5S,6r)-6-(1-isopropyl-3-(3-(trifluoromethyl)phenyl)-1H-1,2,4-triazol-5-yl)bicyclo[3.1.0]hexan-3-yl)-1,4-oxazepane]

Continued, compound first:

SMILES: CC(C)n1nc(-c2ccc(C(F)(F)F)cc2)cc1[C@H]1[C@@H]2C[C@H](N3CCOCC3)C[C@@H]21 [Compound 173, 4-((1R,3r,5S,6r)-6-(1-Isopropyl-3-(4-(trifluoromethyl)phenyl)-1H-pyrazol-5-yl)bicyclo[3.1.0]hexan-3-yl)morpholine]
EC50 ([1]; Mus musculus, 24 h): 0.004 µM
EC50 (EpiSC-derived OPCs; Mus musculus, 72 h): 0.0223 µM
Ki [2]: 0.00781 µM

SMILES: CC(C)n1nc(-c2cccc(C(F)(F)F)c2)nc1[C@H]1[C@@H]2C[C@@H](N3CCOC[C@H]3C)C[C@@H]21 (single isomer, unassigned) [71*]
EC50 ([1]; Mus musculus, 24 h): 0.205 µM
EC50 (EpiSC-derived OPCs; Mus musculus, 72 h): 0.749 µM
Ki [2]: 0.029 µM

SMILES: CC(C)n1nc(-c2cncc(C(F)(F)F)c2)cc1[C@H]1[C@@H]2C[C@@H](N3C[C@@H]4C[C@H]3CO4)C[C@@H]21 (single isomer, unassigned) [36*]
EC50 ([1]; Mus musculus, 24 h): 0.23 µM
EC50 (EpiSC-derived OPCs; Mus musculus, 72 h): 0.144 µM
Ki [2]: 0.211 µM

SMILES: CC(C)n1nc([C@H]2CC[C@@H](C(F)(F)F)CC2)nc1[C@H]1[C@@H]2C[C@@H](N3CCOC[C@H]3C)C[C@@H]21 (single isomer, unassigned) [Compound 167*]
EC50 ([1]; Mus musculus, 24 h): 0.00358 µM
EC50 (EpiSC-derived OPCs; Mus musculus, 72 h): 0.029 µM
Ki [2]: 0.0251 µM

SMILES: CC(C)n1nc(-c2cccc(C(F)(F)F)c2)nc1[C@H]1[C@@H]2C[C@H](N3CCOC[C@H]3C)C[C@@H]21 (single isomer, unassigned) [70*]
EC50 ([1]; Mus musculus, 24 h): 0.00643 µM
EC50 (EpiSC-derived OPCs; Mus musculus, 72 h): 0.00065 µM
Ki [2]: 0.00876 µM

SMILES: CC(C)n1nc(-c2cccc(OC(F)(F)F)c2)cc1[C@H]1[C@@H]2C[C@H](N3CCCOCC3)C[C@@H]21 [Compound 189*, 4-((1R,3r,5S,6r)-6-(1-isopropyl-3-(3-(trifluoromethoxy)phenyl)-1H-pyrazol-5-yl)bicyclo[3.1.0]hexan-3-yl)-1,4-oxazepane]
EC50 ([1]; Mus musculus, 24 h): 0.00343 µM
EC50 (EpiSC-derived OPCs; Mus musculus, 72 h): 0.00332 µM
Ki [2]: 0.00914 µM

SMILES: CCn1nc(-c2cncc(C(F)(F)F)c2)cc1[C@H]1[C@@H]2C[C@@H](N3CCCOCC3)C[C@@H]21 [Compound 53, 4-((1R,3s,5S,6r)-6-(1-Ethyl-3-(5-(trifluoromethyl)pyridin-3-yl)-1H-pyrazol-5-yl)bicyclo[3.1.0]hexan-3-yl)-1,4-oxazepane]
EC50 ([1]; Mus musculus, 24 h): 0.0138 µM
EC50 (EpiSC-derived OPCs; Mus musculus, 72 h): 0.075 µM
Ki [2]: 0.0125 µM

SMILES: CC(C)n1nc(-c2cccc(C(F)(F)F)n2)cc1[C@H]1[C@@H]2C[C@H](N3CCCOCC3)C[C@@H]21 [Compound 50, 4-((1R,3r,5S,6r)-6-(1-Isopropyl-3-(6-(trifluoromethyl)pyridin-2-yl)-1H-pyrazol-5-yl)bicyclo[3.1.0]hexan-3-yl)-1,4-oxazepane]
EC50 ([1]; Mus musculus, 24 h): 0.00162 µM
EC50 (EpiSC-derived OPCs; Mus musculus, 72 h): 0.00772 µM
Ki [2]: 0.021 µM

SMILES: CC(C)n1nc(-c2ccccc2F)cc1[C@H]1[C@@H]2C[C@@H](N3CCCOCC3)C[C@@H]21 [Compound 194*, 4-((1R,3s,5S,6r)-6-(3-(2-fluorophenyl)-1-isopropyl-1H-pyrazol-5-yl)bicyclo[3.1.0]hexan-3-yl)-1,4-oxazepane]
EC50 ([1]; Mus musculus, 24 h): 0.0423 µM
EC50 (EpiSC-derived OPCs; Mus musculus, 72 h): 0.131 µM
Ki [2]: 0.0131 µM

SMILES: CC(C)n1nc(-c2ccc(C(F)(F)F)cn2)cc1[C@H]1[C@@H]2C[C@H](N3CCOCC3)C[C@@H]21 [Compound 174, 4-((1R,3r,5S,6r)-6-(1-Isopropyl-3-(5-(trifluoromethyl)pyridin-2-yl)-1H-pyrazol-5-yl)bicyclo[3.1.0]hexan-3-yl)morpholine]
EC50 ([1]; Mus musculus, 24 h): 0.00751 µM
EC50 (EpiSC-derived OPCs; Mus musculus, 72 h): 0.035 µM

SMILES: CC(C)n1nc(-c2cc(C(F)(F)F)ncn2)cc1[C@H]1[C@@H]2C[C@@H](N3CCOC[C@H]3C)C[C@@H]21 [Compound 202, (R)-4-((1R,3s,5S,6R)-6-(1-isopropyl-3-(6-(trifluoromethyl)pyrimidin-4-yl)-1H-pyrazol-5-yl)bicyclo[3.1.0]hexan-3-yl)-3-methylmorpholine]
EC50 ([1]; Mus musculus, 24 h): 0.00476 µM
EC50 (EpiSC-derived OPCs; Mus musculus, 72 h): 0.0216 µM

SMILES: CC(C)n1nc(-c2cnc(N)c(C(F)(F)F)c2)cc1[C@H]1[C@@H]2C[C@H](N3CCCOCC3)C[C@@H]21 [Compound C, reference compound]
EC50 ([1]; Mus musculus, 24 h): 0.0156 µM
fold decrease in activity in the mouse zymostenol assay ([1]; as compared to compound 29*): 4.9 fold
EC50 (EpiSC-derived OPCs; Mus musculus, 72 h): 0.075 µM
fold decrease in activity in the OPC assay (EpiSC-derived OPCs; as compared to compound 29*): 3.8 fold

SMILES: CC(C)n1nc(-c2cncc(C(F)(F)F)c2)cc1[C@H]1[C@@H]2C[C@@H](N3CCOCC3)C[C@@H]21 [Cmpd 202]
EC50 ([1]; Mus musculus, 24 h): 0.236 µM
EC50 (EpiSC-derived OPCs; Mus musculus, 72 h): 0.723 µM

SMILES: CC(C)n1nc(-c2cccc(OC(F)(F)F)c2)nc1[C@H]1[C@@H]2C[C@H](N3CCCOCC3)C[C@@H]21 [Compound 17, 4-((1R,3r,5S,6r)-6-(1-isopropyl-3-(3-(trifluoromethoxy)phenyl)-1H-1,2,4-triazol-5-yl)bicyclo[3.1.0]hexan-3-yl)-1,4-oxazepane]
EC50 ([1]; Mus musculus, 24 h): 0.00174 µM
EC50 (EpiSC-derived OPCs; Mus musculus, 72 h): 0.00416 µM
